According to patent US6461997B1, “Triazole sulfones having herbicidal activity” (Monsanto Technology LLC, priority 1999, dated 2002):

How the values were obtained:
ECHCG (barnyardgrass) = experiment: Pre-emergence herbicidal activity, warm season; assay type: in vivo, Echinochloa crus-galli; settings: GR80 = lowest tested rate (300, 100, 30, 10 g/ha) with 80% or greater inhibition; approx. 14 days after treating; 30/21° C.
How it was run: (§1)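 Activity is expressed as the rate giving 80% inhibition, with 300, 100, 30 and 10 g/ha typically tested. An asterisk marks activity short of 80% at the top rate. Warm-season grasses were held at 30/21 °C; cool-season blackgrass and wild buckwheat at 18/13 °C; scoring at about 14 days.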

SETFA (giant foxtail) [1] = experiment: Pre-emergence herbicidal activity, warm season; assay type: in vivo, Setaria faberi; settings: GR80 = lowest tested rate (300, 100, 30, 10 g/ha) with 80% or greater inhibition; approx. 14 days after treating; 30/21° C.
How it was run: as §1

[2] = tested on: GALAP (catchweed bedstraw); experiment: Pre-emergence herbicidal activity, cool season; assay type: in vivo, Galium aparine; settings: lowest tested rate with 80% or greater inhibition; rates 300, 100, 30, 10 g/ha; about 14 days
How it was run: (§2)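 GR80 values derive from percent inhibition relative to untreated plants, read roughly 14 days after sowing and pre-emergence soil-surface treatment (compound in 50:50 acetone/water; rates typically 10, 30, 100, 300 g/ha). Warm-season weeds grew at 30/21° C day/night, cool-season ones at 18/13° C; an asterisk marks activity without reaching 80% at the highest rate.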

[3] = tested on: VERPE (creeping speedwell); experiment: Pre-emergence herbicidal activity, cool season; assay type: in vivo, Veronica persicaria; settings: lowest tested rate with 80% or greater inhibition; rates 300, 100, 30, 10 g/ha; about 14 days
How it was run: as §2

ALOMY (blackgrass) = experiment: Pre-emergence herbicidal activity, cool season; assay type: in vivo, Alopecurus myosuroides; settings: GR80 = lowest tested rate (300, 100, 30, 10 g/ha) with 80% or greater inhibition; approx. 14 days after treating; 18/13° C.
How it was run: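 GR80 values, pre-emergence, soil applied at 300, 100, 30, 10 g/ha. Warm regime 30/21 °C: PANMI, DIGSA. Cool regime 18/13 °C: ALOMY, POLCO. Rating ~14 d, % inhibition vs untreated.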

[4] = tested on: SORHA (johnsongrass (seedling)); experiment: Pre-plant incorporated (PPI) herbicidal activity, warm season; assay type: in vivo, Sorghum halepense; settings: for Percent inhibition SORHA: PPI application; for PPI activity GR80, SORHA: pre-plant incorporated, lowest tested rate with 80% or greater inhibition, about 14 days
How it was run: (§3)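 First, seeds were placed on topsoil compacted to 1.0–1.25 cm below the pot rim. Next, cover soil treated with sprayed test compound and mixed was added over them. Pots then received 0.64 cm irrigation at 30/21° C or 18/13° C day/night, and inhibition versus untreated was rated near day 14.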

SETFA (giant foxtail) [5] = experiment: as above; assay type: in vivo, Setaria faberi; settings: for Percent inhibition SETFA: PPI application; for PPI activity GR80, SETFA: pre-plant incorporated, lowest tested rate with 80% or greater inhibition, about 14 days
How it was run: as §3

DIGSA (large crabgrass) = experiment: as above; assay type: in vivo, Digitaria sanguinalis; settings: for Percent inhibition DIGSA: PPI application; for PPI activity GR80, DIGSA: pre-plant incorporated, lowest tested rate with 80% or greater inhibition, about 14 days
How it was run: as §3

SINAR (wild mustard) = experiment: Pre-plant incorporated (PPI) herbicidal activity, cool season; assay type: in vivo, Sinapis arvensis; settings: for Percent inhibition SINAR: weed, PPI application; for PPI activity GR80, SINAR: pre-plant incorporated, lowest tested rate with 80% or greater inhibition, about 14 days
How it was run: as §3

corn (ZEAMX) = experiment: Selectivity test, PPI, warm season crop; assay type: in vivo, Zea mays; settings: PPI application
How it was run: (§4)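 Percent inhibition relative to untreated controls, assessed roughly 14 days post-planting. Seeds were covered with a soil layer into which solvent-borne compound had been sprayed and mixed. Plants were then grown at 30/21° C. (warm season) or 18/13° C. (cool season) day/night regimes.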

barley (HORVX) = experiment: Selectivity test, PPI, cool season crop; assay type: in vivo, Hordeunm vulgare; settings: PPI application
How it was run: as §4

Structure (SMILES)	Pre-emergence activity (GR80) ECHCG (ECHCG (barnyardgrass))	Pre-emergence activity (GR80) SETFA (SETFA (giant foxtail) [1])	Pre-emergence activity GR80, GALAP [2]	Pre-emergence activity GR80, VERPE [3]	Pre-emergence activity (GR80) ALOMY (ALOMY (blackgrass))	Percent inhibition SORHA ([4]; 30 g/ha)	Percent inhibition SORHA ([4]; 100 g/ha)	Percent inhibition SORHA ([4]; 300 g/ha)	Percent inhibition SORHA ([4]; 900 g/ha)	Percent inhibition SETFA (SETFA (giant foxtail) [5]; 30 g/ha)	Percent inhibition SETFA (SETFA (giant foxtail) [5]; 100 g/ha)	Percent inhibition SETFA (SETFA (giant foxtail) [5]; 300 g/ha)	Percent inhibition SETFA (SETFA (giant foxtail) [5]; 900 g/ha)	Percent inhibition DIGSA (DIGSA (large crabgrass); 30 g/ha)	Percent inhibition DIGSA (DIGSA (large crabgrass); 100 g/ha)	Percent inhibition DIGSA (DIGSA (large crabgrass); 300 g/ha)	Percent inhibition DIGSA (DIGSA (large crabgrass); 900 g/ha)	Percent inhibition SINAR (SINAR (wild mustard); 30 g/ha)	Percent inhibition SINAR (SINAR (wild mustard); 100 g/ha)	Percent inhibition SINAR (SINAR (wild mustard); 900 g/ha)	further results
CCN(CC)C(=O)n1cnc(S(=O)(=O)C(F)(F)SC)n1 [Example 9]	300 g/ha	100 g/ha	[empty]	100 g/ha	300 g/ha	100%	100%	100%	100%	95%	100%	100%	100%	95%	100%	100%	100%	100%	100%	100%	Percent inhibition SINAR (SINAR (wild mustard); 300 g/ha): 70%; Percent inhibition ZEAMX (corn (ZEAMX); 30 g/ha): 0%; Percent inhibition ZEAMX (corn (ZEAMX); 100 g/ha): 10%; Percent inhibition ZEAMX (corn (ZEAMX); 300 g/ha): 90%; Percent inhibition ZEAMX (corn (ZEAMX); 900 g/ha): 99%; Percent inhibition HORVX (barley (HORVX); 30 g/ha): 0%; Percent inhibition HORVX (barley (HORVX); 100 g/ha): 0%; Percent inhibition HORVX (barley (HORVX); 300 g/ha): 10%; Percent inhibition HORVX (barley (HORVX); 900 g/ha): 40%
CCN(CC)C(=O)n1cnc(S(=O)(=O)C(F)(F)SCc2ccccc2)n1 [Example 10]	300 g/ha	100 g/ha	[empty]	100 g/ha	300 g/ha	0%	50%	100%	100%	60%	80%	100%	100%	0%	90%	85%	100%	90%	100%	100%	Percent inhibition SORHA ([4]; 10 g/ha): 0%; Percent inhibition SETFA (SETFA (giant foxtail) [5]; 10 g/ha): 0%; Percent inhibition DIGSA (DIGSA (large crabgrass); 10 g/ha): 0%; Percent inhibition SINAR (SINAR (wild mustard); 10 g/ha): 0%; Percent inhibition SINAR (SINAR (wild mustard); 300 g/ha): 80%; Percent inhibition ZEAMX (corn (ZEAMX); 10 g/ha): 0%; Percent inhibition ZEAMX (corn (ZEAMX); 30 g/ha): 0%; Percent inhibition ZEAMX (corn (ZEAMX); 100 g/ha): 0%; Percent inhibition ZEAMX (corn (ZEAMX); 300 g/ha): 10%; Percent inhibition ZEAMX (corn (ZEAMX); 900 g/ha): 40%; Percent inhibition HORVX (barley (HORVX); 10 g/ha): 0%; Percent inhibition HORVX (barley (HORVX); 30 g/ha): 0%; Percent inhibition HORVX (barley (HORVX); 100 g/ha): 0%; Percent inhibition HORVX (barley (HORVX); 300 g/ha): 0%; Percent inhibition HORVX (barley (HORVX); 900 g/ha): 20%
CCN(CC)C(=O)n1cnc(S(=O)(=O)C(F)(F)SCCOC)n1 [Example 13]	300 g/ha	* (activity observed, at least at highest rate, but <80% inhibition)	100 g/ha	300 g/ha	300 g/ha	100%	90%	100%	100%	99%	90%	100%	100%	75%	100%	100%	100%	100%	100%	100%	Percent inhibition SORHA ([4]; 10 g/ha): 30%; PPI activity GR80, SORHA [4]: 100 g/ha; Percent inhibition SETFA (SETFA (giant foxtail) [5]; 10 g/ha): 0%; PPI activity GR80, SETFA (SETFA (giant foxtail) [5]): 30 g/ha; Percent inhibition DIGSA (DIGSA (large crabgrass); 10 g/ha): 0%; PPI activity GR80, DIGSA (DIGSA (large crabgrass)): 30 g/ha; PPI activity GR80, SINAR (SINAR (wild mustard)): [empty]; Percent inhibition SINAR (SINAR (wild mustard); 10 g/ha): 70%; Percent inhibition ZEAMX (corn (ZEAMX); 10 g/ha): 0%; Percent inhibition ZEAMX (corn (ZEAMX); 30 g/ha): 0%; Percent inhibition ZEAMX (corn (ZEAMX); 100 g/ha): 5%; Percent inhibition ZEAMX (corn (ZEAMX); 300 g/ha): 10%; Percent inhibition ZEAMX (corn (ZEAMX); 900 g/ha): 50%; Percent inhibition HORVX (barley (HORVX); 10 g/ha): 0%; Percent inhibition HORVX (barley (HORVX); 30 g/ha): 0%; Percent inhibition HORVX (barley (HORVX); 100 g/ha): 20%; Percent inhibition HORVX (barley (HORVX); 300 g/ha): 10%; Percent inhibition HORVX (barley (HORVX); 900 g/ha): 40%
CCN(CC)C(=O)n1cnc(S(=O)(=O)C(F)(F)C(F)F)n1 [Example 16]	100 g/ha	30 g/ha	100 g/ha	100 g/ha	100 g/ha	70%	100%	100%	100%	80%	100%	100%	100%	100%	90%	100%	100%	50%	100%	100%	Percent inhibition SORHA ([4]; 10 g/ha): 0%; PPI activity GR80, SORHA [4]: 10 g/ha; Percent inhibition SETFA (SETFA (giant foxtail) [5]; 10 g/ha): 80%; PPI activity GR80, SETFA (SETFA (giant foxtail) [5]): 10 g/ha; Percent inhibition DIGSA (DIGSA (large crabgrass); 10 g/ha): 70%; PPI activity GR80, DIGSA (DIGSA (large crabgrass)): 10 g/ha; PPI activity GR80, SINAR (SINAR (wild mustard)): 10 g/ha; Percent inhibition SINAR (SINAR (wild mustard); 10 g/ha): 0%; Percent inhibition SINAR (SINAR (wild mustard); 300 g/ha): 100%; Percent inhibition ZEAMX (corn (ZEAMX); 10 g/ha): 0%; Percent inhibition ZEAMX (corn (ZEAMX); 30 g/ha): 5%; Percent inhibition ZEAMX (corn (ZEAMX); 100 g/ha): 20%; Percent inhibition ZEAMX (corn (ZEAMX); 300 g/ha): 40%; Percent inhibition ZEAMX (corn (ZEAMX); 900 g/ha): 80%; Percent inhibition HORVX (barley (HORVX); 10 g/ha): 0%; Percent inhibition HORVX (barley (HORVX); 30 g/ha): 0%; Percent inhibition HORVX (barley (HORVX); 100 g/ha): 10%; Percent inhibition HORVX (barley (HORVX); 300 g/ha): 25%; Percent inhibition HORVX (barley (HORVX); 900 g/ha): 20%
